Results as given in patent US20020009441A1, “Reactively modified therapeutic compounds having an extended lifetime in vivo” (priority 1993, published 2002).

What was measured:
red blood cells = details: rabbit, in vivo
Protocol: I. Two rabbits were injected with a solution of N-succinimidyl biotin ester (NHS-biotin)(5 or 50 mg in 200 μl or 1 ml of DMSO) i.v. on day 0.

plasma proteins = details: rabbit, in vivo
[1] = blood component in blood; cited from earlier work
anti-avidin titer = test: Anti-avidin antibody titer by ELISA after i.v. avidin; assay type: in vivo, rabbit
Text: II. […] Within about 2 days the titer began to rise rapidly and by 10 days a high anti-avidin titer was observed by ELISA, using avidin coated to microiplates, as evidenced by an OD value of about 600.

**Q.** For O=C1N[C@H]2[C@H](CS[C@H]2CCCCC(=O)ON2C(=O)CCC2=O)N1 [NHS-biotin, N-succinimidyl biotin ester], which “biotinylated red blood cell protein bands at 33 days” value (red blood cells) is on record?
**A.** Its value is “no bands could be observed”.

**Q.** What about the “duration for which biotinylated red blood cell proteins could be observed” value (red blood cells) of the same compound?
**A.** The value was 12 days.

**Q.** And the “duration for which IgG bands could be observed” value (plasma proteins)?
**A.** Its value is 9 days.

**Q.** And the “duration of detection of biotin bound to IgM and IgG” value (plasma proteins)?
**A.** Its value is “up to 33 days”.

**Q.** Which “Half-life” value [1] does the source give for “transferrin: blood protein, mobile blood component” here?
**A.** The value was 10 days.

**Q.** For “avidin: egg white avidin, heterologous protein and reciprocal binding member of biotin”, which “time at which anti-avidin titer began to rise rapidly” value (anti-avidin titer; 250 μg or 1 mg egg white avidin i.v. after biotin conjugate administration) is on record?
**A.** The value was ≤ 2 days.

**Q.** And the “anti-avidin titer, OD value (ELISA)” value (anti-avidin titer; by 10 days, 250 μg or 1 mg egg white avidin i.v. after biotin conjugate administration)?
**A.** The value was “about 600”.

**Q.** And the anti-avidin antibody production (anti-avidin titer; rabbits not previously given biotin conjugate, before i.v. booster of 50 μg avidin on day 6)?
**A.** The anti-avidin antibody production was “substantially no production of antibodies”.
